{"source": "patent US20140221207A1", "about": "“ISOLATED BACTERIAL STRAIN OF THE GENUS BURKHOLDERIA AND PESTICIDAL METABOLITES THEREFROM- FORMULATIONS AND USES” (MARRONE BIO INNOVATIONS, INC., priority 2011, published 2014)", "key": {"[1]": {"test_system": "Burkholderia A396", "format": "cell-based, Burkholderia sp. A396", "conditions": "72-hour incubation at 25° C", "description": "Antibiotic susceptibility of Burkholderia A396 is tested using antibiotic disks on Muller-Hinton medium as described in PML Microbiological's technical data sheet #535."}, "[2]": {"test_system": "B. cepacia complex", "conditions": "2,621 strains in B. cepacia complex; cited from earlier work"}, "[3]": {"test_system": "Chlamydomonas reinhardtii", "test": "Control of Chlamydomonas reinhardtii by purified compounds, fluorescence at 680 nm", "format": "cell-based", "conditions": "72 hours", "description": "Purified compounds from Burkholderia sp. fermentation broth was tested for algaicidal activity against Chlamydomonas reinhardtii. An increasing volume of the purified compounds (20 mg/mL in ethanol) was added to a clear 48 well polystyrene plate with 750 micro liters of the specified algae growing. Each treatment was done in two replicates and the solvent used as a negative control. The plate was closed with a lid and incubated for 72 hours under constant light at room temperature. After 72 hours the fluorescence (at 680 nm) of the suspension in each well was measured using a SpectraMax M2 plate reader, and the reduction in fluorescence compared with the negative control was converted into percent control of algal growth. Each sample was visually compared to the negative control; a well that was visually clearer than the negative control was scored as active. […] Tests were run in two replicates and %. Control was calculated as a reduction of fluorescence at 680 nm compared with the negative control. Each sample was visually compared to the negative control; a well that was visually clearer than the negative control was scored as active."}, "[4]": {"test_system": "Lygus hesperus", "test": "12 well plate treated green beans bioassay, Lygus hesperus late 2nd/early 3rd instar", "format": "in vivo", "conditions": "green beans dipped in 0.25 mg/mL, scored at 24, 48 and 120 hours", "description": "The insecticidal activity of the four compounds, templamide A, templamide B, FR901465 & FR901228 isolated from Burkholderia were tested in a laboratory assay using a 12 well plate with treated green beans bioassay system. The compound was dissolved in 100% ethanol to concentrations of […] and 500 μL of this sample was added to 3.5 mL of water to make a total volume of 4 mL containing 0.25 mg/mL concentration of the compound. Green beans were washed earlier in bleach solution and then sat in water to rinse. Beans were dried before using and then were cut with scissors to fit into wells of 12-well plate. With the help of forceps the beans were dunked into a 15 mL plastic falcon tube containing each treatment and then submerged in treatment for exactly one min. one bean part was put into each well and then individual late 2nd/early 3rd instar Lygus hesperus, were placed in wells with help of brush. Plate sealer was used to cover tray and hole poked into the plate sealer for aeration. The numbers of Lygus/well were counted and plates were placed on brench top. Larvae were scored at 24, 48 and 120 hours after application. […] The positive control used in this testing was Avid (Avemectin) at the rate of 13 μL/10 mL."}, "[5]": {"test_system": "Two Spotted Spidermite (TSM)", "test": "Control of two spotted spidermite (TSM) in strawberry, field data", "format": "in vivo", "conditions": "6 oz./acre", "description": "The efficacies of five traditional chemistry-derived and MBI 206 were evaluated for TSM control under field conditions. ‘Strawberry Festival’ transplants were set in the field in plastic mulched beds, 13 inches high and 27 inches across the top, and with 4 ft bed spacing. Overhead irrigation was applied for 10 days after setting to aid in establishment of the transplants. Trickle irrigation was used for the remainder of the experiment. Each 12.5-ft. plot consisted of 20 plants in two ten-plant rows per bed. Plots were infested from a laboratory colony in four sessions with 10 to 20 motile TSM, per plant. Each session accomplished the infestation of one block of the experiment. The experiment consisted of treatments of various rates and schedules of application of miticides, some combined with an adjuvant, and a non-treated check. Treatments were replicated four times in a RCB design. Savey and Acramite treatments were applied before TSM densities reached threshold levels (6 January); the remainder of the treatment programs began 2 wks later. Treatments were applied using a hand-held sprayer with a spray wand outfitted with a nozzle containing a 45-degree core and a number four disc.\nThe sprayer was pressurized by CO2, to 40 psi, and calibrated to deliver 100 gal per acre. Pre-treatment samples were taken on Day 1 and sampling continued weekly through 2 wks after the last application of treatments. Samples consisted of ten randomly selected leaflets per plot and were collected from the middle one-third stratum of the plants. Samples were transported to the laboratory where motile and egg TSM were brushed from the leaflets onto rotating sticky discs and counted on 1/10 of the disc surface to estimate average numbers per leaflet. Distinctions could not be made between viable and non-viable eggs, thus total eggs were recorded."}, "[6]": {"conditions": "5 μL of sample (20 mg/mL in ethanol) per 750 μL of algae"}, "[7]": {"conditions": "5 μL of sample per 750 μL of algae"}, "[8]": {"conditions": "11 μL of sample (20 mg/mL in ethanol) per 750 μL of algae"}, "[9]": {"conditions": "11 μL of sample per 750 μL of algae"}, "[10]": {"conditions": "22.5 μL of sample (20 mg/mL in ethanol) per 750 μL of algae"}, "[11]": {"conditions": "22.5 μL of sample per 750 μL of algae, well visually clearer than negative control scored as active"}}, "note": "Several values for one entry are separate records, joined by “and”; a condition that tells them apart may be missing. Equal values may be shown once. Read-outs that look alike come from different tables or passages of the source.", "data": [{"compound": "NC[C@H]1O[C@H](O[C@H]2[C@H](O)[C@@H](O[C@H]3O[C@H](CO)[C@@H](O)[C@H](N)[C@H]3O)[C@H](N)C[C@@H]2N)[C@H](O)[C@@H](O)[C@@H]1O", "note": "[Kanamycin]", "values": [{"measurement": "Susceptible", "setting": "[1]; disk 30 μg", "result": "+++"}]}, {"compound": "C[C@@H](O)[C@H]1C(=O)N2C(C(=O)O)=C(SCCN=CN)C[C@H]12", "note": "[Imipenem]", "values": [{"measurement": "Susceptible", "setting": "[1]; disk 10 μg", "result": "+++"}]}, {"compound": "O=C(O)c1cn(C2CC2)c2cc(N3CCNCC3)c(F)cc2c1=O", "note": "[Ciprofloxacin]", "values": [{"measurement": "Susceptible", "setting": "[1]; disk 5 μg", "result": "++"}, {"measurement": "share of strains susceptible", "setting": "[2]", "result": 5, "unit": "%"}]}, {"compound": "templazole B", "values": [{"measurement": "% Control", "setting": "[3]; [6]", "result": "−102.1", "unit": "%"}, {"measurement": "Visual", "setting": "[3]; [7]", "result": "Not Active"}, {"measurement": "% Control", "setting": "[3]; [8]", "result": 52.95, "unit": "%"}, {"measurement": "Visual", "setting": "[3]; [9]", "result": "Not Active"}, {"measurement": "% Control", "setting": "[3]; [10]", "result": "−30.79", "unit": "%"}, {"measurement": "Visual", "setting": "[3]; [11]", "result": "Not Active"}]}, {"compound": "CN(C)[C@@H]1C(O)=C(C(N)=O)C(=O)[C@@]2(O)C(O)=C3C(=O)c4c(O)cccc4[C@@](C)(O)[C@H]3[C@H](O)[C@@H]12", "note": "[Oxytetracycline]", "values": [{"measurement": "Susceptible", "setting": "[1]; disk 30 μg", "result": "−"}]}, {"compound": "CN(C)[C@@H]1C(O)=C(C(N)=O)C(=O)[C@@]2(O)C(O)=C3C(=O)c4c(O)cccc4[C@@](C)(O)[C@H]3C[C@@H]12", "note": "[Tetracycline]", "values": [{"measurement": "Susceptible", "setting": "[1]; disk 30 μg", "result": "−"}]}, {"compound": "Gentamicin", "values": [{"measurement": "Susceptible", "setting": "[1]; disk 10 μg", "result": "−"}]}, {"compound": "CC[C@H]1OC(=O)[C@H](C)[C@@H](O[C@H]2C[C@@](C)(OC)[C@@H](O)[C@H](C)O2)[C@H](C)[C@@H](O[C@@H]2O[C@H](C)C[C@H](N(C)C)[C@H]2O)[C@](C)(O)C[C@@H](C)C(=O)[C@H](C)[C@@H](O)[C@]1(C)O", "note": "[Erythromycin]", "values": [{"measurement": "Susceptible", "setting": "[1]; disk 15 μg", "result": "−"}]}, {"compound": "CC1(C)S[C@@H]2[C@H](NC(=O)[C@H](N)c3ccccc3)C(=O)N2[C@H]1C(=O)O", "note": "[Ampicillin]", "values": [{"measurement": "Susceptible", "setting": "[1]; disk 10 μg", "result": "−"}]}, {"compound": "CO/N=C(\\C(=O)N[C@@H]1C(=O)N2C(C(=O)O)=C(COC(N)=O)CS[C@H]12)c1ccco1", "note": "[Cefuroxime]", "values": [{"measurement": "Susceptible", "setting": "[1]; disk 30 μg", "result": "−"}]}, {"compound": "CCC(=O)OC(C)/C=C\\C(=O)NC1CC(C)C(C/C=C(C)/C=C/C2OC(C)(O)C(O)C3(CO3)C2O)OC1C", "note": "(centres unmarked) [Templamide B]", "values": [{"measurement": "% Control", "setting": "[3]; [6]", "result": 95.05, "unit": "%"}, {"measurement": "Visual", "setting": "[3]; [7]", "result": "Active"}, {"measurement": "% Control", "setting": "[3]; [8]", "result": 99.34, "unit": "%"}, {"measurement": "Visual", "setting": "[3]; [9]", "result": "Active"}, {"measurement": "% Control", "setting": "[3]; [10]", "result": 98.3, "unit": "%"}, {"measurement": "Visual", "setting": "[3]; [11]", "result": "Active"}, {"measurement": "mortality at 250 µg/mL", "setting": "[4]; Lygus hesperus", "result": 69.2, "unit": "%"}]}, {"compound": "CCC(=O)OC(C)/C=C\\C(=O)NC1CC(C)C(C/C=C(C)/C=C/C2OC(C)(O)C(O)C(O)(CO)C2O)OC1C", "note": "(centres unmarked) [Templamide A]", "values": [{"measurement": "% Control", "setting": "[3]; [6]", "result": "−67.61", "unit": "%"}, {"measurement": "Visual", "setting": "[3]; [7]", "result": "Not Active"}, {"measurement": "% Control", "setting": "[3]; [8]", "result": "−21.16", "unit": "%"}, {"measurement": "Visual", "setting": "[3]; [9]", "result": "Not Active"}, {"measurement": "% Control", "setting": "[3]; [10]", "result": "−151.6", "unit": "%"}, {"measurement": "Visual", "setting": "[3]; [11]", "result": "Not Active"}, {"measurement": "mortality", "setting": "[4]", "result": "inactive"}]}, {"compound": "Penicillin", "values": [{"measurement": "Susceptible", "setting": "[1]; disk 10 μg", "result": "−"}]}, {"compound": "[H]/N=C(/N)N[C@H]1[C@H](O)[C@@H](O)[C@H](O[C@@H]2O[C@@H](C)[C@](O)(C=O)[C@H]2O[C@@H]2O[C@@H](CO)[C@H](O)[C@@H](O)[C@@H]2NC)[C@@H](N/C(N)=N\\[H])[C@@H]1O", "note": "[Streptomycin]", "values": [{"measurement": "Susceptible", "setting": "[1]; disk 10 μg", "result": "−"}]}, {"compound": "O=C(N[C@H](CO)[C@H](O)c1ccc([N+](=O)[O-])cc1)C(Cl)Cl", "note": "[Chloramphenicol]", "values": [{"measurement": "Susceptible", "setting": "[1]; disk 30 μg", "result": "++"}, {"measurement": "share of strains susceptible", "setting": "[2]", "result": 15, "unit": "%"}]}, {"compound": "CCN1CCN(C(=O)N[C@@H](C(=O)N[C@@H]2C(=O)N3[C@@H]2SC(C)(C)[C@@H]3C(=O)O)c2ccccc2)C(=O)C1=O", "note": "[Piperacillin]", "values": [{"measurement": "Susceptible", "setting": "[1]; disk 100 μg", "result": "+++"}]}, {"compound": "COC(=O)c1nc(CC(C)C)oc1-c1c[nH]c2ccccc12", "note": "[Templazole A, templazole A]", "values": [{"measurement": "% Control", "setting": "[3]; [6]", "result": "99.18% and 98.69%"}, {"measurement": "Visual", "setting": "[3]; [7]", "result": "Active"}, {"measurement": "% Control", "setting": "[3]; [8]", "result": "98.73% and 98.31%"}, {"measurement": "Visual", "setting": "[3]; [9]", "result": "Active"}, {"measurement": "% Control", "setting": "[3]; [10]", "result": "98.15% and 95.71%"}, {"measurement": "Visual", "setting": "[3]; [11]", "result": "Active"}]}, {"compound": "C[C@@H]1[C@@H](c2ccc(Cl)cc2)SC(=O)N1C(=O)NC1CCCCC1", "note": "[hexythiazox]", "values": [{"measurement": "No. egg TSM/leaflet", "setting": "[5]; Day 1 (pre-treatment sample)", "result": 2}, {"measurement": "No. egg TSM/leaflet", "setting": "[5]; Day 9", "result": 8.5}, {"measurement": "No. egg TSM/leaflet", "setting": "[5]; Day 16", "result": 15}, {"measurement": "No. egg TSM/leaflet", "setting": "[5]; Day 22", "result": 17}, {"measurement": "No. egg TSM/leaflet", "setting": "[5]; Day 30", "result": 22}, {"measurement": "No. egg TSM/leaflet", "setting": "[5]; Day 37", "result": 71.5}, {"measurement": "No. egg TSM/leaflet", "setting": "[5]; Day 44", "result": 128.5}, {"measurement": "No. egg TSM/leaflet", "setting": "[5]; Day 52", "result": 281.5}, {"measurement": "No. egg TSM/leaflet", "setting": "[5]; Day 58", "result": 393.5}]}]}
